From US4673690A, “Acylated enamides and pharmaceutical compositions containing them” (priority 1982, dated 1987)

Legend:
cytochrome P450 = experiment: Toxicity of doxorubicin in vivo: content of cytochrome P450 in the liver; parameters: species or system rats
Experimental: (§1) On the other hand the drop in benzo(a)pyrene hydroxylase activity is no more than 20% and the decrease in aldrin mono-oxygenase activity is reduced to 40%.
(§2) A single dose (10 mg/kg) of a composition containing equal amounts by weight of doxorubicin and of para-(methoxyphenylacetyl)-dehydroalanine was injected into rats. A 60% increase in the minimum content of cytochrome P450, a 20% increase in the benzo(a)pyrene hydroxylase activity and a 5% decrease in the aldrin mono-oxygenase activity were observed.

[1] = system: benzo(a)pyrene hydroxylase; experiment: Toxicity of doxorubicin in vivo: benzo(a)pyrene hydroxylase activity in the liver; parameters: species or system rats
Experimental: as §1, §2

L311 leukaemia cells = experiment: Survival of rats inoculated with L311 leukaemia cells (Example 6); type: in vivo, LOU/2 strain; conditions: doxorubicin alone, intraperitoneal
Experimental: A pharmaceutical composition is prepared by mixing 4 g of para-(methoxyphenylacetyl)-dehydroalanine obtained according to Example 1 and 0.2 g of doxorubicin.
One million L311 leukaemia cells are injected intraperitoneally into a group of six rats, LOU/2 strain, the mean body weight of the rats being 160 g. L311 leukaemia is a tumour transplantable in rats of strain LOU/2, the tumour being described in the article by C. Deckers, F. Mare, L. Deckers-Passeu and A. Trouet, Adriamycin Review, Part I, 1973, pages 79 to 86.
48 hours after this injection the pharmaceutical composition described above is administered to the rats, again intraperitoneally, in an amount of 105 mg per kg of rat.
By way of comparison, a group of twelve similar rats to which one million L311 leukaemia cells have also been administered is subjected solely to intraperitoneal administration of doxorubicin 48 hours after the administration of the L311 leukaemia cells, and a group of twelve similar rats to which one million L311 leukaemia cells have also been administered is given no subsequent treatment whatsoever.

Solubility = type: physicochemical
[2] = Lethal dose (LD50) in the mouse; conditions: in vivo
Description: The results obtained are listed in the table below, the para-(methoxyphenylacetyl)-dehydroalanine being referred to by the code S 86.

aldrin mono-oxygenase = experiment: Toxicity of doxorubicin in vivo: aldrin mono-oxygenase activity in the liver; parameters: species or system rats; conditions: rat
Experimental: as §1, §2

[3] = system: Taper Liver Tumor cancer cells; experiment: Taper Liver Tumor in mice, variation of the amount of S 86 (Example 3); type: in vivo, NMRI strain; conditions: cyclophosphamide 80 mg/kg alone, i.p.
Experimental: (§3) One million "Taper Liver Tumor" cancer cells are injected intraperitoneally into groups of twelve adult male mice, NMRI strain, the mice having a body weight of about 30 grams. 48 hours after this injection various pharmaceutical compositions according to the invention are administered, again intraperitoneally, to the mice, the amount of para-(methoxyphenylacetyl)-dehydroalanine present in the composition administered being varied, and compositions only containing cyclophosphamide also beino administered.
(§4) Thereafter, three parameters are measured:
(a) the variations of the mean weight of the mice on the fifth day after inoculation of the cancer tumour (V.M.W.)
(§5) (b) the median survival of 12 mice treated with a pharmaceutical composition according to the invention or treated with cyclophosphamide alone (M.S.)
(c) the prolongation of survival of the mice treated with a composition according to the invention relative to comparison mice treated with cyclophosphamide alone (P.S.).

[4] = system: Taper Liver Tumor cancer cells; experiment: Survival of mice inoculated with Taper Liver Tumor cells (Example 2); type: in vivo; conditions: cyclophosphamide alone, intraperitoneal, 48 hours after cancer cells
Experimental: A pharmaceutical composition is prepared by mixing 4 g of para-(methoxyphenylacetyl)-dehydroalanine obtained according to Example 1 and 3.2 g of cyclophosphamide.
One million "Taper Liver Tumor" cancer cells are injected intraperitoneally into a group of 10 mice each weighing about 30 g. 48 hours after this injection, the pharmaceutical composition described above is administered again intraperitoneally, in an amount of 180 mg per kg of mouse.
By way of comparison, a group of 10 similar mice to which likewise one million "Taper Liver Tumor" cancer cells have been administered is subjected solely to administration of cyclophosphamide, by intraperitoneal injection, 48 hours after administration of the cancer cells, and a group of 10 other similar mice, to which, again, one million "Taper Liver Tumor" cancer cells have been administered is not subjected to any further treatment whatsoever.

[5] = system: Taper Liver Tumor cancer cells; experiment: Taper Liver Tumor in mice, variation of the amount of cyclophosphamide (Example 4); type: in vivo, NMRI strain; conditions: i.p.
Experimental: as §3, with “cyclophosphamide” for “para-(methoxyphenylacetyl)-dehydroalanine”, “being” for “beino”
as §4
(a) the variation of the mean weight of the mice on the fifth day after inoculation of the cancer tumour (V.M.W.)
as §5
(c) the prolongation of survival of the mice treated with a composition according to the invention relative to comparison mice treated with the same dose of cyclophosphamide (P.S).

[6] = single dose of doxorubicin 10 mg/kg, subcutaneous, rat liver
[7] = cyclophosphamide 80 mg/kg alone
[8] = cyclophosphamide 180 mg/kg alone
[9] = cyclophosphamide 360 mg/kg alone
[10] = cyclophosphamide 450 mg/kg alone
[11] = cyclophosphamide 540 mg/kg alone

## COc1cccc2c1C(=O)c1c(O)c3c(c(O)c1C2=O)C[C@@](O)(C(=O)CO)C[C@@H]3O[C@H]1C[C@H](N)[C@H](O)[C@H](C)O1 [doxorubicin]
Cytochrome P450; [6]
  reduction in the minimum content of cytochrome P450: 20%
[1]; [6]
  benzo(a)pyrene hydroxylase activity (in words): a drop in benzo(a)pyrene hydroxylase activity
L311 leukaemia cells
  first death after administration of the leukaemia cells: sixteen
L311 leukaemia cells; 48 hours after leukaemia cells
  mean length of survival after administration of the leukaemia cells: 27.6 days

## C=C(NC(=O)Cc1ccc(OC)cc1)C(=O)O [S 86, para-(methoxyphenylacetyl)-dehydroalanine]
Solubility
  solubility of the product: low solubility
[2]
  LD50: > 400 mg/kg

## NCCS [cysteamine]
Aldrin mono-oxygenase
  decrease in aldrin mono-oxygenase activity: 40%
Cytochrome P450; rat, in vivo
  protection against the effect of doxorubicin on the level of cytochrome P450: does not protect
[1]; rat, in vivo
  drop in benzo(a)pyrene hydroxylase activity: no more than 20%

## O=P1(N(CCCl)CCCl)NCCCO1 (stereo not shown) [Cyclophosphamide, cyclophosphamide]
[3]
  median survival (M.S.): 24 days
  variation of the mean weight of the mice on the fifth day (V.M.W.): -1
[4]
  all die between (day of death): twenty-second day and the twenty-fifth day
[5]; [7]
  median survival (M.S.): 21 days
  variation of the mean weight of the mice on the fifth day (V.M.W.): -2.2
[5]; [8]
  median survival (M.S.): 23 days
  variation of the mean weight of the mice on the fifth day (V.M.W.): -4.4
[5]; [9]
  median survival (M.S.): 31 days
  variation of the mean weight of the mice on the fifth day (V.M.W.): -6.6
[5]; [10]
  median survival (M.S.): 20 days
  variation of the mean weight of the mice on the fifth day (V.M.W.): -14
[5]; [11]
  median survival (M.S.): 12 days
  variation of the mean weight of the mice on the fifth day (V.M.W.): -18.6
